The values that follow come from paper PMC6887663 (Pharmacology Research & Perspectives, 2019).

Structures are written as SMILES.

For one data set, the system named is CYP3A4/5. Kind of data set: CYP3A4/5 inhibition in human liver microsomes. It counts as biochemical. The conditions noted are these: for IC50 at 10 min / inhibition at 10 min, 666 μmol/L: human, human liver microsomes; for inhibition at 10 min, 666 μmol/L: probe testosterone, Inhibition of formation of 6β‐hydroxytestosterone, Mean, testosterone. (In general: Liver microsomes are a subcellular fraction often used to study metabolism.)

The subject of data set [1] is moderate‐to‐severe psoriasis. Particulars: phase III trial (BRIDGE); both P < .001; cited from earlier work.
For data set [2] the following is noted: pH conditions and gut esterases; cited from earlier work.
Data set [3] can be described thus: Preliminary metabolic stability in HLM. It counts as in vitro ADME, human. The conditions noted are these: with and without cofactor, 37°C, 0-40 minutes, MMF at 750 μmol/L.
For data set [4], the target named is T1, P‐gp (Homo sapiens, UniProt P08183). Kind of data set: P-gp inhibition, [3H]digoxin efflux in MDCKII-MDR1 and MDCKII-WT cells. The conditions noted are these: for % Control relative to 0 mmol/L MMF: MDCKII cells, [^3H]digoxin net efflux ratio.
T1 sequence (P08183 whole entry): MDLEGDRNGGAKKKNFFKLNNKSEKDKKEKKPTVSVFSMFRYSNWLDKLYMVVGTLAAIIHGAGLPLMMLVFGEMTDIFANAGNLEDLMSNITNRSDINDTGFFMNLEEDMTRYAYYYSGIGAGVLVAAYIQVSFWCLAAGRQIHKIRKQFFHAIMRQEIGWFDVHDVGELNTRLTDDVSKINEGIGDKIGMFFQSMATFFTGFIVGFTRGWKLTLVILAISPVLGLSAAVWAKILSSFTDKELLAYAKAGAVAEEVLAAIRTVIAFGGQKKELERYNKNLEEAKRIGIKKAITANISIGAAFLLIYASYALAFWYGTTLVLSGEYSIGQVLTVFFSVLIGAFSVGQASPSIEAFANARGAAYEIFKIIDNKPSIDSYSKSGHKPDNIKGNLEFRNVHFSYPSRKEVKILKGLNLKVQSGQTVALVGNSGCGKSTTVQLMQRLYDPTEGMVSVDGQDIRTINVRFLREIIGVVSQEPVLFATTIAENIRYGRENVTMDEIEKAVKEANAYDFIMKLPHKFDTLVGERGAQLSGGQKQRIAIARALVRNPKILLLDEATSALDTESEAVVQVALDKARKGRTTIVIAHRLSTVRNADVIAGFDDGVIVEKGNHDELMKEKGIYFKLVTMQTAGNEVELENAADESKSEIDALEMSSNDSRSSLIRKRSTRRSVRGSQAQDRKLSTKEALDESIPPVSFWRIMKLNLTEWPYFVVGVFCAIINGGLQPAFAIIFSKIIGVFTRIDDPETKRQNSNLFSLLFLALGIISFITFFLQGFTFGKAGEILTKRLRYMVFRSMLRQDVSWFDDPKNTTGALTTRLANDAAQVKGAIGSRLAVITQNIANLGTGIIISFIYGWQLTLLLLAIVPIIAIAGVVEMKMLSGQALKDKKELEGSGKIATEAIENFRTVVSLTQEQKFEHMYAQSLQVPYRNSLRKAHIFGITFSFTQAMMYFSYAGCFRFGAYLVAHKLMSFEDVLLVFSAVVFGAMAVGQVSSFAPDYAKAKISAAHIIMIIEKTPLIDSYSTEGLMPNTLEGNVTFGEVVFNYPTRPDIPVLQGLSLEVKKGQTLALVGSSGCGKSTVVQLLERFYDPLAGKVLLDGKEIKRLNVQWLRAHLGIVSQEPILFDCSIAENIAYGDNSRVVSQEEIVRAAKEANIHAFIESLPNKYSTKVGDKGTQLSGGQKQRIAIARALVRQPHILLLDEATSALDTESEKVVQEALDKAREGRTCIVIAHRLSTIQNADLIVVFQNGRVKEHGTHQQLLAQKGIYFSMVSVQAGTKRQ
The target of data set [5] is T1, P‐gp. Kind of data set: P-gp inhibition, [3H]digoxin efflux in Caco-2 cells. Particulars: for % Control relative to 0 mmol/L MMF: Caco‐2 cells, [^3H]digoxin efflux ratio.
The target of another data set is CYP2C9 (Homo sapiens, UniProt P11712). Kind of data set: CYP2C9 inhibition in human liver microsomes. It counts as biochemical.
CYP2C9, sequence (P11712 whole entry): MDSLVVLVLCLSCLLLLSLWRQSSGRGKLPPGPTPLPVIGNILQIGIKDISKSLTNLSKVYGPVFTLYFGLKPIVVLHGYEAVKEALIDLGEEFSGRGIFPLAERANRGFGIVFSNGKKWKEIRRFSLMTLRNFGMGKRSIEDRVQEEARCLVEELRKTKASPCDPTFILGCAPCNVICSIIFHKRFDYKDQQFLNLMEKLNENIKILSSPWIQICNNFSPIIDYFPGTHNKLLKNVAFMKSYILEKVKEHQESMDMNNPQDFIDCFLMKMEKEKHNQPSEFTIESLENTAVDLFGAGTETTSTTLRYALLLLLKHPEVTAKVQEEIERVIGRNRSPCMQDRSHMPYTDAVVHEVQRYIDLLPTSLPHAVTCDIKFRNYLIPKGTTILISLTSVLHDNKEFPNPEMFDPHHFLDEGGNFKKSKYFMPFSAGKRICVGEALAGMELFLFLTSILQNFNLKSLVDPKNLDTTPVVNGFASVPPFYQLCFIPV
The target of another data set is T2, CYP2B6 (Homo sapiens, UniProt P20813).
T2 sequence (P20813 1-491): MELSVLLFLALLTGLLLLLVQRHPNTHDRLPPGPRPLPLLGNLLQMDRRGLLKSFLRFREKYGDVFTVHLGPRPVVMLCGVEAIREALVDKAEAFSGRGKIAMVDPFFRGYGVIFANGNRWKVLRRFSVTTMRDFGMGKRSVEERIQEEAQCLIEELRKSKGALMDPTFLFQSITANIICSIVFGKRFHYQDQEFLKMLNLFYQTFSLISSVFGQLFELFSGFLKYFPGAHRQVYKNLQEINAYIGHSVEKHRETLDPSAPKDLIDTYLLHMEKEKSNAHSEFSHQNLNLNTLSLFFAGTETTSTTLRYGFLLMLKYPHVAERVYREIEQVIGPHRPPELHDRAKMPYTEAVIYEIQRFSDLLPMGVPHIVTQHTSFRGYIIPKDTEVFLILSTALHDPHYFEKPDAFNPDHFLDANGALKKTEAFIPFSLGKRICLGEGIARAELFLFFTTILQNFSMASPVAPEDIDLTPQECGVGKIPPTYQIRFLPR
Kind of data set: CYP2B6 inhibition in human liver microsomes. It counts as biochemical.

Data set [6] is described as follows: Preliminary solubility in potassium phosphate buffer with HLM. It counts as physicochemical. The conditions noted are these: MMF in solutions of HLM at 0.025 and 0.3 mg/mL.
The conditions of data set [7]: read-out: maximum plasma concentration (Cmax) of MMF; for a 240 mg dose; clinically relevant; cited from earlier work.
The next data set deals with CYP2C19 (Homo sapiens, UniProt P33261). Kind of data set: CYP2C19 inhibition in human liver microsomes. It counts as biochemical.
CYP2C19, sequence (P33261 whole entry): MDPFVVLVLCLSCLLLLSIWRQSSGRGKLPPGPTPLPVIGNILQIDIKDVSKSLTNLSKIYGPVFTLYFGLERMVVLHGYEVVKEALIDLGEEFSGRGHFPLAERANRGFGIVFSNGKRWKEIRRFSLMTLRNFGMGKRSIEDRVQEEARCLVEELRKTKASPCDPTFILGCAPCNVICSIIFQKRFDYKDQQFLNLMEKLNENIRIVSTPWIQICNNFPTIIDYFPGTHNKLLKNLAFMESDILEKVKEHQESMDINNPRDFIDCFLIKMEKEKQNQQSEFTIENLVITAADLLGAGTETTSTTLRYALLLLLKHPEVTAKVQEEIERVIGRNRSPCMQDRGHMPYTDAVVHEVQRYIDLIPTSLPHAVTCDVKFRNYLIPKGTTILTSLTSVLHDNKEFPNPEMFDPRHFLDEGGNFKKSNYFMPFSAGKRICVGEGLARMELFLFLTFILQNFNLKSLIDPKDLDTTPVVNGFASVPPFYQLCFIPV
Another data set concerns the target T3, CYP1A2 (Homo sapiens, UniProt P05177).
T3 sequence (P05177 1-516): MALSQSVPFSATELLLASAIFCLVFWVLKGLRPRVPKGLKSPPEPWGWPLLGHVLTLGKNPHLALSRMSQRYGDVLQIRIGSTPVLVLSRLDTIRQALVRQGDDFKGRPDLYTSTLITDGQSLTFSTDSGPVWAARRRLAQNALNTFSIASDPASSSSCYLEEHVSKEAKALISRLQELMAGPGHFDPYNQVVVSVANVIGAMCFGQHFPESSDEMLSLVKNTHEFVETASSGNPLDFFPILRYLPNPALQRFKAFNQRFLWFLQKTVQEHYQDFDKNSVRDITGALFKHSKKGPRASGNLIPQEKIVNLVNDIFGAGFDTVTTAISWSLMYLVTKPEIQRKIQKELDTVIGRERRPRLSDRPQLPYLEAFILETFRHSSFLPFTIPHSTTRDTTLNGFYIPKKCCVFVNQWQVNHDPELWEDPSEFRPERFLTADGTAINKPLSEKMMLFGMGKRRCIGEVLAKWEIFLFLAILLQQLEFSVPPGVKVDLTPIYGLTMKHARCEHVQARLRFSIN
Kind of data set: CYP1A2 inhibition in human liver microsomes. It counts as biochemical.

Another data set deals with human hepatocytes. Kind of data set: Cytotoxicity in cultured human hepatocytes. It counts as cell-based. Particulars: MMF ≤250 μmol/L; 72‐hour incubation.
Data set [8] in a line: Cytotoxicity in cultured human hepatocytes. It counts as cell-based. Particulars: human, cryopreserved plated human hepatocytes.
Data set [9] in a line: MMF concentration in incubation medium. It counts as in vitro ADME. Particulars: no‐cell control plate; after 24 hours’ incubation.
The target of the next data set is CYP2D6 (Homo sapiens, UniProt P10635). Kind of data set: CYP2D6 inhibition in human liver microsomes. It counts as biochemical.
CYP2D6, sequence (P10635 whole entry): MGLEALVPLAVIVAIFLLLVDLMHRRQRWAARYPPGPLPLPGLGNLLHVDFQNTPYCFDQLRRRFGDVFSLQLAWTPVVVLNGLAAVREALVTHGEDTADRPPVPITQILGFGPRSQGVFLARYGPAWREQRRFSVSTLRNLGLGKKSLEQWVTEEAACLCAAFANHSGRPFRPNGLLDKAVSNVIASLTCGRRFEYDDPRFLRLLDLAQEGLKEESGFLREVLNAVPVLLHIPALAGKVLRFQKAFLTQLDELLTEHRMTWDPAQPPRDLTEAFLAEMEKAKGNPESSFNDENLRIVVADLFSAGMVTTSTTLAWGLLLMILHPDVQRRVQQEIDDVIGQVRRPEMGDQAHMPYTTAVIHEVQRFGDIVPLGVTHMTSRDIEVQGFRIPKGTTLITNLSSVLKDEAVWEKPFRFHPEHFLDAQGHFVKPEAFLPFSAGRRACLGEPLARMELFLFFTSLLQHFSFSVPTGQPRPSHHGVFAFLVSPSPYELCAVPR
Data set [10] has as its target T1, P‐gp. Kind of data set: P-gp substrate assessment in MDCKII-MDR1 and WT MDCKII cells. It counts as in vitro ADME. Particulars: MMF; at 120 minutes; all concentrations investigated.
Data set [11] in a line: Permeability across Caco-2 cell monolayers. It counts as in vitro ADME. The conditions noted are these: human, Caco-2, pH 7.4. (In general: Caco-2 monolayers are a common model of the intestinal barrier.)
The subject of a further data set is CYP1A2 mRNA. Kind of data set: CYP1A2 mRNA induction in cultured human hepatocytes. It counts as cell-based.
The next data set deals with T4, CYP2C8 (Homo sapiens, UniProt P10632).
T4 sequence (P10632 1-490): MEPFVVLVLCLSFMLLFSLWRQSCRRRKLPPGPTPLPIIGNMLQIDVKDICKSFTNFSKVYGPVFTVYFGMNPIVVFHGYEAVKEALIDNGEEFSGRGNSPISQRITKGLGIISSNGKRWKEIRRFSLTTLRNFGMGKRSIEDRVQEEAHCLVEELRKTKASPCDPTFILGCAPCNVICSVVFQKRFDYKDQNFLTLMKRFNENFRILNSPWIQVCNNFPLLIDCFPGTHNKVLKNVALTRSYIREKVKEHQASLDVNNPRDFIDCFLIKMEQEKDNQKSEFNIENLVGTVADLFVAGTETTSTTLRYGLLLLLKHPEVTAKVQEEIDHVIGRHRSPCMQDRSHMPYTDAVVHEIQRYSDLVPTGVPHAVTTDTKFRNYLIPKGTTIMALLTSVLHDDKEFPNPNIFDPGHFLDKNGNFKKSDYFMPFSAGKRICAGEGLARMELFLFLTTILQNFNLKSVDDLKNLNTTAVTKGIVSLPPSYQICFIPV
Kind of data set: CYP2C8 inhibition in human liver microsomes. It counts as biochemical.

Data set [12] is described as follows: MMF solubility in supplemented Williams' Medium E. It counts as physicochemical. The conditions noted are these: MMF up to 750 μmol/L.
Another data set has as its system CYP3A4 mRNA. Kind of data set: CYP3A4 mRNA induction in cultured human hepatocytes. It counts as cell-based.
The test system of another data set is CYP2B6 mRNA. Kind of data set: CYP2B6 mRNA induction in cultured human hepatocytes. It counts as cell-based.

A word on the IC50: it is the concentration needed to halve the response being measured. Higher therefore signals a need for much substance. One may read the inhibition as the relative decrease from the control value, in per cent. In the case of `COC(=O)/C=C/C(=O)OC` [DMF, dimethylfumarate], the “Inhibition of formation of 1′‐hydroxymidazolam, Mean” value with CYP3A4/5 (DMF 666 μmol/L, 30 min PI + cofactor, midazolam, HLM) stood at 8.93%. This compound also came in with an IC50 at 10 min in the data set with CYP3A4/5 of over 666 µM. Also, the inhibition at 10 min, 666 μmol/L with CYP3A4/5 (DMF 666 μmol/L, 0 min PI, HLM) was 0%; with CYP3A4/5 (DMF 666 μmol/L, 30 min PI + cofactor, HLM) it was 35.5%; in the data set with CYP3A4/5 (DMF 666 μmol/L, 30 min PI – cofactor, HLM) it was 0%. The “number of patients with PASI 75 at Week 16” value in data set [1] is “superiority over placebo and noninferiority versus the FAE combination”. Also, in [2], the “hydrolysis half‐life of DMF in the intestine” value is “less than 2 minutes”. Besides, in data set [3], the “metabolic stability under the incubation conditions” value is listed as “unlikely to be stable”. Moreover, the half-maximal inhibitory concentration (IC50) against P‐gp [4] came out at 900 µM; against P‐gp [5], 1500 µM.
A word on the viability: it is the share of living cells, or the viability signal relative to a control. By Papp A→B is commonly meant how fast a substance crosses the layer from the apical side. Take `COC(=O)/C=C/C(=O)O` [MMF, monomethylfumarate]: the IC50 against CYP2C9, on CYP2B6, on CYP2C19, at CYP1A2, at CYP2D6 and against CYP2C8 was over 750 µM throughout. The “mean recovery upon centrifugation” value in data set [6] is on record as over 92.2%. Further, in data set [7], the Cmax was 11.2 µM. The same compound gave an IC50 at 10 min with CYP3A4/5 of over 750 µM. The “cytotoxic effects on human hepatocytes” value with human hepatocytes was “No significant cytotoxic effects”. Also, the viability at 72 h, 750 μmol/L in data set [8] turned out to be 71.6%. The “metabolic stability under the incubation conditions” value in data set [3] is “stable”. In data set [9], the “MMF still present in medium” value is on record as “over 65%”. Also, the “% Control relative to 0 mmol/L MMF” value is on record as over 69.4% at P‐gp [4] (MMF 0.246 mmol/L); over 88.2% on P‐gp [4] (MMF 0.738 mmol/L); over 138% at P‐gp [4] (MMF 7.38 mmol/L); 76.9% at P‐gp [5] (MMF 0.0738 mmol/L); 76.7% at P‐gp [5] (MMF 0.246 mmol/L); 99.8% at P‐gp [5] (MMF 0.738 mmol/L). Further, the “% Control relative to 0 mmol/L MMF” value at P‐gp [5] (MMF 7.38 mmol/L) worked out at 14.5%. On P‐gp [10], the net efflux ratio is under 2. The Papp A→B at 120 min in [11] is under 2 ×10⁻⁶ cm/s. In the data set with CYP1A2 mRNA (250 μmol/L MMF, donor 4), the “fold increase in CYP1A2 mRNA” value came to 4.78 fold. The “CYP1A2 mRNA induction, overall” value in the data set on CYP1A2 mRNA (MMF 1‐250 µmol/L, three donors) is recorded as “No concentration‐dependent induction effects”. Besides, on P‐gp [5] (7.38 mmol/L MMF, Caco‐2), the “decrease of [^3H]digoxin efflux ratio” value is “approximately 85%”. Further, on P‐gp [5] (7.38 mmol/L MMF, Caco‐2, possibly cytotoxicity), the “fold increase of Papp for [^3H]digoxin in the A–B direction” value is given as “approximately 9 fold”. Also, in data set [12], the “Post‐centrifugation recoveries” value is given as at least 86.5%. The “fold increase in CYP3A4 mRNA” value in the data set with CYP3A4 mRNA (1 µmol/L MMF, donor 2 (XKU), not concentration dependent) is over 2 fold. For the same compound, in the data set with CYP3A4 mRNA (MMF at concentrations up to 250 μmol/L), the “CYP3A4 mRNA induction, overall” value is given as “no concentration‐dependent increases above 2‐fold”. Moreover, the “fold increase in CYP2B6 mRNA” value in the data set on CYP2B6 mRNA (250 μmol/L MMF, donor 4) worked out at 17.6 fold. For the same compound, the “CYP2B6 mRNA induction, overall” value with CYP2B6 mRNA (MMF 1‐250 µmol/L, three donors) is given as “No concentration‐dependent induction effects”.
